According to patent US11034718B2, “C-3 novel triterpenone with C-17 reverse amide derivatives as HIV inhibitors” (HETERO LABS LIMITED, priority 2015, dated 2021):
Like-named read-outs stand apart in the source and are kept apart here.

Test system: HIV-1 strain 92HT599
Test: Antiviral activity against HIV-1 strain 92HT599 in MT2 cells (p24 estimation)
Type: cell-based
Settings: HIV-1 92HT599, ~96 hours
Method: Example 77: Evaluation of Compounds Antiviral Activity Against HIV-1 Strain 92HT599 in MT2 Cells
MT2 cells were infected with HIV-1 strain 92HT599 (10 TCID 50/30000 cells). The infected cells were plated at the concentration of 30,000 cells per well in 96 well plate. Test compound was added to the micro plate in defined format with the final concentration of DMSO (vehicle) is not more than 1%. Incubation was carried out in CO2 incubator for ˜96 hours for viral infection. At the end of incubation period an aliquot from each well was taken for p24 estimation. The quantitation of p24 is an index for antiviral activity of the compound. Percent inhibition was calculated with reference to control values (vehicle controls). p24 estimation was carried out using Advance biosciences kit as per the procedure detailed by supplier.

[1] = Human immunodeficiency virus 1, 0% serum binding assay, read-out: IC50 0% serum
[2] = Human immunodeficiency virus 1, 40% serum binding assay, read-out: IC50 40% serum

CC(C)C1=C2[C@H]3CC[C@@H]4[C@@]5(C)CC[C@H](OC(=O)[C@H]6C[C@@H](C(=O)O)C6(C)C)C(C)(C)[C@@H]5CC[C@@]4(C)[C@]3(C)CC[C@@]2(NC(=O)C2(NC(=O)c3ccc(Cl)cc3)CCCC2)CC1=O [Example 46, (1R,3S)-3-((((3aR,5aR,5bR,7aR,9S,11aR,11bR,13aS)-3a-(1-(4-chlorobenzamido)cyclopentane-1-carboxamido)-1-isopropyl-5a,5b,8,8,11a-pentamethyl-2-oxo-3,3a,4,5,5a,5b,6,7,7a,8,9,10,11,11a,11b,12,13,13a-octadecahydro-2H-cyclopenta[a]chrysen-9-yl)oxy)carbonyl)-2,2-dimethylcyclobutane-1-carboxylic acid]
IC50 [1]: < 3 nM | IC50 [2]: < 50 nM

CC(C)C1=C2[C@H]3CC[C@@H]4[C@@]5(C)CC[C@H](OC(=O)[C@H]6C[C@@H](C(=O)O)C6(C)C)C(C)(C)[C@@H]5CC[C@@]4(C)[C@]3(C)CC[C@@]2(NC(=O)C2(NC(=O)c3ccc(Cl)cc3)CCCCC2)CC1=O [Example 48, (1R,3S)-3-((((3aR,5aR,5bR,7aR,9S,11aR,11bR,13aS)-3a-(1-(4-chlorobenzamido)cyclohexane-1-carboxamido)-1-isopropyl-5a,5b,8,8,11a-pentamethyl-2-oxo-3,3a,4,5,5a,5b,6,7,7a,8,9,10,11,11a,11b,12,13,13a-octadecahydro-2H-cyclopenta[a]chrysen-9-yl)oxy)carbonyl)-2,2-dimethylcyclobutane-1-carboxylic acid]
IC50 [1]: < 3 nM | IC50 [2]: < 50 nM

Cc1ccc(C(=O)NC2(C(=O)N[C@@]34CC[C@]5(C)[C@H](CC[C@@H]6[C@@]7(C)CC[C@H](OC(=O)[C@H]8C[C@@H](C(=O)O)C8(C)C)C(C)(C)[C@@H]7CC[C@]65C)C3=C(C(C)C)C(=O)C4)CCCCC2)cn1 [Example 49, (1R,3S)-3-((((3aR,5aR,5bR,7aR,9S,11aR,11bR,13aS)-1-isopropyl-5a,5b,8,8,11a-pentamethyl-3a-(1-(6-methylnicotinamido)cyclohexane-1-carboxamido)-2-oxo-3,3a,4,5,5a,5b,6,7,7a,8,9,10,11,11a,11b,12,13,13a-octadecahydro-2H-cyclopenta[a]chrysen-9-yl)oxy)carbonyl)-2,2-dimethylcyclobutane-1-carboxylic acid]
IC50 [1]: < 3 nM | IC50 [2]: < 50 nM

Cc1ccc(C(=O)NC2(C(=O)N[C@@]34CC[C@]5(C)[C@H](CC[C@@H]6[C@@]7(C)CC[C@H](OC(=O)[C@H]8C[C@@H](C(=O)O)C8(C)C)C(C)(C)[C@@H]7CC[C@]65C)C3=C(C(C)C)C(=O)C4)CCCCC2)cc1 [Example 50, (1R,3S)-3-((((3aR,5aR,5bR,7aR,9S,11aR,11bR,13aS)-1-isopropyl-5a,5b,8,8,11a-pentamethyl-3a-(1-(4-methylbenzamido)cyclohexane-1-carboxamido)-2-oxo-3,3a,4,5,5a,5b,6,7,7a,8,9,10,11,11a,11b,12,13,13a-octadecahydro-2H-cyclopenta[a]chrysen 9-yl)oxy)carbonyl)-2,2-dimethylcyclobutane-1-carboxylic acid]
IC50 [1]: < 3 nM | IC50 [2]: < 50 nM

CC(C)C1=C2[C@H]3CC[C@@H]4[C@@]5(C)CC[C@H](OC(=O)[C@H]6C[C@@H](C(=O)O)C6(C)C)C(C)(C)[C@@H]5CC[C@@]4(C)[C@]3(C)CC[C@@]2(NC(=O)C(C)(C)NC(=O)CN(C)C)CC1=O [Example 59, (1R,3S)-3-((((3aR,5aR,5bR,7aR,9S,11aR,11bR,13aS)-3a-(2-(2-(dimethylamino)acetamido)-2-methylpropanamido)-1-isopropyl-5a,5b,8,8,11a-pentamethyl-2-oxo-3,3a,4,5,5a,5b,6,7,7a,8,9,10,11,11a,11b,12,13,13a-octadecahydro-2H-cyclopenta[a]chrysen-9-yl)oxy)carbonyl)-2,2-dimethylcyclobutane-1-carboxylic acid]
IC50 [1]: < 3 nM | IC50 [2]: 50 to 200 nM

Cc1cccc(C(=O)NC(C)(C)C(=O)N[C@@]23CC[C@]4(C)[C@H](CC[C@@H]5[C@@]6(C)CC[C@H](OC(=O)[C@H]7C[C@@H](C(=O)O)C7(C)C)C(C)(C)[C@@H]6CC[C@]54C)C2=C(C(C)C)C(=O)C3)n1 [Example 60, (1R,3S)-3-((((3aR,5aR,5bR,7aR,9S,11aR,11bR,13aS)-1-isopropyl-5a,5b,8,8,11a-pentamethyl-3a-(2-methyl-2-(6-methylpicolinamido)propanamido)-2-oxo-3,3a,4,5,5a,5b,6,7,7a,8,9,10,11,11a,11b,12,13,13a-octadecahydro-2H-cyclopenta[a]chrysen-9-yl)oxy)carbonyl)-2,2-dimethylcyclobutane-1-carboxylic acid]
IC50 [1]: < 3 nM | IC50 [2]: < 50 nM

CC(C)C1=C2[C@H]3CC[C@@H]4[C@@]5(C)CC[C@H](OC(=O)[C@H]6C[C@@H](C(=O)O)C6(C)C)C(C)(C)[C@@H]5CC[C@@]4(C)[C@]3(C)CC[C@@]2(NC(=O)C(C)(C)NCc2ccccn2)CC1=O [Example 67, (1R,3S)-3-((((3aR,5aR,5bR,7aR,9S,11aR,11bR,13aS)-1-isopropyl-5a,5b,8,8,11a-pentamethyl-3a-(2-methyl-2-((pyridin-2-ylmethyl)amino)propan amido)-2-oxo-3,3a,4,5,5a,5b,6,7,7a,8,9,10,11,11a,11b,12,13,13a-octadecahydro-2H-cyclopenta[a]chrysen-9-yl)oxy)carbonyl)-2,2-dimethylcyclobutane-1-carboxylic acid]
IC50 [1]: < 3 nM | IC50 [2]: < 50 nM

CC(C)C1=C2[C@H]3CC[C@@H]4[C@@]5(C)CC[C@H](OC(=O)[C@H]6C[C@@H](C(=O)O)C6(C)C)C(C)(C)[C@@H]5CC[C@@]4(C)[C@]3(C)CC[C@@]2(NC(=O)C(C)(C)NCc2ccc(Cl)cc2)CC1=O [Example 68]
IC50 [1]: 3.01 to 10 nM | IC50 [2]: < 50 nM

CC(C)C1=C2[C@H]3CC[C@@H]4[C@@]5(C)CC[C@H](OC(=O)[C@H]6C[C@@H](C(=O)O)C6(C)C)C(C)(C)[C@@H]5CC[C@@]4(C)[C@]3(C)CC[C@@]2(NC(=O)C(C)(C)NCC2(c3ccc(Cl)cc3)CC2)CC1=O [Example 69, (1R,3S)-3-((((3aR,5aR,5bR,7aR,9S,11aR,11bR,13aS)-3a-(2-(((1-(4-chlorophenyl)cyclopropyl)methyl)amino)-2-methylpropanamido)-1-isopropyl-5a,5b,8,8,11a-pentamethyl-2-oxo-3,3a,4,5,5a,5b,6,7,7a,8,9,10,11,11a,11b,12,13,13a-octadecahydro-2H-cyclopenta[a]chrysen-9-yl)oxy)carbonyl)-2,2-dimethylcyclobutane-1-carboxylic acid]
IC50 [1]: > 10 nM | IC50 [2]: 50 to 200 nM

Cc1ccc(NC(=O)NC(C)(C)C(=O)N[C@@]23CC[C@]4(C)[C@H](CC[C@@H]5[C@@]6(C)CC[C@H](OC(=O)[C@H]7C[C@@H](C(=O)O)C7(C)C)C(C)(C)[C@@H]6CC[C@]54C)C2=C(C(C)C)C(=O)C3)cn1 [Example 71, (1R,3S)-3-((((3aR,5aR,5bR,7aR,9S,11aR,11bR,13aS)-1-isopropyl-5a,5b,8,8,11a-pentamethyl-3a-(2-methyl-2-(3-(6-methylpyridin-3-yl)ureido)propanamido)-2-oxo-3,3a,4,5,5a,5b,6,7,7a,8,9,10,11,11a,11b,12,13,13a-octadecahydro-2H-cyclopenta[a]chrysen-9-yl)oxy)carbonyl)-2,2-dimethylcyclobutane-1-carboxylic acid]
IC50 [1]: < 3 nM | IC50 [2]: 50 to 200 nM
